Source: US6949533B2, “6,7-Oxygenated steroids and uses related thereto” (Inflazyme Pharmaceuticals Ltd., priority 1996, dated 2005)
Where two headings read alike, the source gives them in different places.

Columns and labels:
[1] = tested on: passively sensitized rat mast cells (RBL-2H3); assay: antigen-induced release of hexosaminidase from RBL-2H3 cells; format: cell-based; settings: for inhibition at 25 µM: Rattus norvegicus
Description: (§1) The anti-allergic effects of various polyhydroxylated steroids of the present invention were evaluated by measuring their effect on antigen-induced secretion of hexosaminidase from a passively sensitized rat mast cell line (RBL-2H3) and a murine mast cell line (MC/9). The ability of agents to inhibit the release of mast cell granule contents, e.g., histamine and hexosaminidase, is indicative of anti-allergy and/or anti-asthma activity.
(§2) Hexosaminidase is released from the mast cell granule along with histamine and other mediators during antigen challenge. RBL-2H3 and MC/9 cells were grown in culture and passively sensitized to dinitrophenol (DNP) using anti-human-DNP (IgE). Cells were incubated with each compound (25 μM) for 1 hour at 37° C. and then stimulated with 0.1 mg/ml DNP-HSA (antigen) for 15 min. Aliquots of the supernatant were removed and used to measure the amount of hexosaminidase released during challenge with the antigen. The amount of hexosaminidase present in the supernatant was determined calorimetrically by monitoring the enzymatic metabolism of p-nitrophenyl-N-acetyl-β-D-glucosaminide (p-NAG) over a period of 1 hour at 410 nm. The effect of each compound was determined as a percentage of the antigen-induced response (minus background release) obtained in the presence of DMSO alone, as set forth in Tables 2 and 3. These values were used to determine the degrees of inhibition of antigen-induced hexosaminidase release from the cells.

guinea pig ileum = assay: antigen-induced contraction of ileum from sensitized guinea pigs; settings: Cavia porcellus, read-out: Percentage Inhibition, 30 μM compound, n = 3-4
Description: The ability of compounds to inhibit allergen-induced contraction of ileum from sensitized animals is indicative of antiallergic activity. Sensitized guinea pig ileum is particularly useful in measuring the immediate allergic response.
The guinea pig ileum has been used to evaluate the ability of compounds to inhibit allergan-induced histamine and mediator release causing smooth muscle contraction. Guinea pigs were sensitized by an intraperitoneal injection of 100 mg ovalbumin and an intramuscular injection of 50 mg ovalbumin on day 0, followed by a second intramuscular injection of 50 mg ovalbumin on day 1. […] Segments of ileum were prepared and suspended, with muscle contractions being measured in the longitudinal plane, in Tyrode's buffer at 37° C. and aerated with 5% CO2 in O2. Tissues were suspended under a resting tension of 2 grams and isometric contractions were measured using force-displacement transducers coupled to a polygraph. Tissues were stimulated with 3 μM histamine 3 times to ensure reproducible contractions were obtained. Tissues were then incubated with each compound (30 μM) or 0.15% dimethylsulphoxide (DMSO) as a control, for 20 min, after which time the tissues were challenged with 100 μg/ml ovalbumin. The magnitude of the contraction induced by OA in the presence of each compound was expressed as a percentage of the contraction obtained to 3 μM histamine. The protective effects of the various compounds on OA-induced contraction of guinea pig ileum from sensitized animals are summarized in Table 4.

rabbit platelets = assay: PAF-induced aggregation of rabbit platelets; format: cell-based; settings: Oryctolagus cuniculus, Platelet, read-out: % Inhibition at 80 μM
Description: Within the present invention, it was discovered that the polyhydroxylated steroids as well as intermediates described in previous sections inhibited the aggregation of platelets caused by platelet activating factor (PAF). PAF is a local mediator of thrombosis and prevention of the formation of blood clots has direct implication in the treatment of thrombosis and associated cardiovascular diseases. The assay system used to evaluate the ability of compounds to inhibit the aggregation of platelets in response to exogenous stimuli is indicative of anti-thrombotic or thrombolytic activity.
Platelets were isolated from rabbit blood and prepared at a density of 2.4×10^8 cells/ml in Tyrodes buffer (pH 7.2) containing Ca^2+. Platelets were incubated with each compound for 5 min at 37° C. prior to stimulation. Platelets were stimulated with 1 nM platelet activating factor (PAF; EC75) in the presence of each of the compounds and aggregation was monitored for 5 min. Compounds were solubilized in dimethylsulfoxide (DMSO) and aggregation was measured as a percentage of the response to 1 nM PAF obtained in the presence of the appropriate concentration of DMSO. The degree of inhibition caused by each sample was calculated using the control response in the presence of DMSO equal to 100%.

isolated trachea = tested on: isolated trachea; set-up: species or system guinea pig; settings: compound 20 μM, study 1
Description: The effects of a number of the compounds described herein on allergen-induced bronchoconstriction were evaluated for anti-asthma activity. The ability of a compound to inhibit allergen-induced decreases in lung function in sensitized guinea pigs in response to antigen-challenge is indicative of anti-asthma activity. In particular, the model system is useful in the evaluation of the potential effects of a compound in the treatment of the early asthmatic reaction (EAR) when severe bronchoconstriction occurs.
Guinea pigs were exposed to a nebulized solution of 1% ovalbumin (OA) in saline for 15 min. […] Tracheal rings were prepared and bathed in Krebs-Henseleit solution at 37° C. and aerated with 5% CO2 in […]. Tissues were suspended under a resting tension of 2 g and isometric contractions were measured using force-displacement transducers coupled to a polygraph. Tissues were incubated with each compound or 0.1% dimethylsulfoxide (as a control) for 20 min, after which increasing concentrations of OA (0.001-100 μg/ml) were added to the tissue. After the final concentration of OA was added and the response was recorded, the tissues were stimulated with 100 μM methacholine which caused maximum contraction of the trachea. The magnitude of the contraction induced by OA in the presence of each compound was expressed as a percentage of the maximum contraction obtained using methacholine (100 μM).

NF-κB = NF-κB gel shift binding assay in TPA-stimulated RBL-2H3 cells; format: cell-based; settings: Rattus norvegicus, compound 1 μM, 2 hours preincubation, read-out: Percent Inhibition of Response to TPA (0.1 μM)
mouse mast cells (MC/9) = assay: antigen-induced release of hexosaminidase from MC/9 cells; format: cell-based; settings: for inhibition at 25 µM: Mus musculus, MC9, 25 μM compound, read-out: Percentage Inhibition (mean) MC/9 cells
Description: as §1, §2

sensitized guinea pigs = assay: allergen-induced changes in lung resistance and compliance in vivo; set-up: species or system guinea pig; settings: 5 mg/kg/day for 4 days p.o.
Description: Female Cam Hartley guinea pigs (350-400 g) are sensitized to ovalbumin by exposure of the guinea pigs to a nebulized solution of 1% ovalbumin in saline for 15 minutes. After 10-12 days, the animals are found to be acutely sensitized to the allergen (ovalbumin). Animals are treated by oral gavage, under light halothane anesthesia, with 300 μl polyethyleneglycol-200 (PEG) or 5 mg/Kg of test compound in 300 μl of PEG. Animals are treated once daily for 4 days with the final dose administered 2 hours prior to allergen challenge. Alternatively, compounds were delivered by inhalation, using a Hudson nebulizer driven by 6 psi oxygen, providing a single dose of 50 μg/Kg 20 min prior to challenge.
An animal is anaesthetized using ketamine ([…]; i.p.) and xylazine (10 mg/Kg; i.p.) and 1% halothane during the surgical procedure. A tracheostomy is performed and a water-filled esophageal cannula is inserted prior to positioning the animal in a body plethysmograph. The tracheal cannula is attached to a fixed tracheal cannula in the plethysmograph. Cardiac function is monitored using electrocardiography. The animal is paralyzed using pancuronium bromide (0.8 mg/Kg; i.m.) and ventilated with 3 ml tidal breaths using a Harvard small animal ventilator, at a frequency of 60 breaths per minute. Pulmonary resistance and dynamic lung compliance data are obtained from volume, flow and transpulmonary pressure signals using multipoint analysis.
Pulmonary function is continually monitored throughout the experiment and measurements of lung resistance and lung compliance are made at various time-points (e.g., 0, 1, 2, 3, 4, 5, 10, 20 and 30 min) following antigen challenge. Data is collected on a computer-linked physiological measurement system using DIREC Physiological recording software and analyzed using ANADAT software designed for lung mechanics measurements. This software was obtained from RHT-InfoDat Inc., Montreal, Quebec, Canada.
Once baseline resistance and compliance measurements are obtained, the animal is challenged with 6 breaths of saline. After 10 minutes, during which time no alterations in lung function should occur, the animal is challenged with 6 breaths of 2 or 3% ovalbumin in saline (as the antigen stimulus). Saline and antigen are delivered in each breath using a Hudson nebulizer.

[2] = RBL-2H3, read-out: Percentage Inhibition (mean) RBL-2H3 Cells
[3] = RBL-2H3, 25 μM compound, antigen-induced hexosaminidase release, read-out: Percentage Inhibition (mean) RBL-2H3 Cells

## C[C@]12CCC(=O)C=C1[C@@H](O)[C@H](O)C1C2CC[C@]2(C)C(=O)CCC12 (stereo partly drawn) [Compound 7]
[1]; [2]
  inhibition at 25 µM: 21.7%
Guinea pig ileum
  inhibition at 30 µM: 54%
Rabbit platelets
  inhibition at 80 µM: 12.3%

## CC1(C)O[C@@H]2C3=CC(=O)CC[C@]3(C)C3CC[C@]4(C)C(=O)CCC4C3[C@H]2O1 (stereo partly drawn) [Compound 8]
Rabbit platelets; 80 μM compound, 5 min preincubation, PAF-stimulated rabbit platelets (title: 0.1 nM PAF)
  inhibition at 80 µM: 11.6%

## CC1(C)O[C@@H]2C3C(CC[C@@]4(C)C3CC[C@@H]4O[Si](C)(C)C(C)(C)C)[C@@]3(C)CC[C@H](O)[C@@H](O)C3[C@H]2O1 (stereo partly drawn) [Compound 236]
[1]; [2]
  inhibition at 25 µM: 31%
Rabbit platelets
  inhibition at 80 µM: 100%
Isolated trachea; OA 0.01 μg/ml
  percentage contraction compared to 100 μM methacholine: 5.6%
Isolated trachea; OA 0.03 μg/ml
  percentage contraction compared to 100 μM methacholine: 5.6%
Isolated trachea; OA 10.0 μg/ml
  percentage contraction compared to 100 μM methacholine: 39%

## C/C=C1/CCC2C3C(CC[C@]12C)[C@@]1(C)CC[C@H](O)CC1[C@@H](O)[C@@H]3O (stereo partly drawn) [Compound 333]
[1]; [3]
  inhibition at 25 µM: 69%
Guinea pig ileum
  inhibition at 30 µM: 63%
NF-κB
  inhibition at 1 µM: 34%
Mouse mast cells (MC/9)
  inhibition at 25 µM: 71%

## CC[C@H]1CCC2C3C(CC[C@@]21C)[C@@]1(C)CC[C@@H](O)CC1[C@@H](O)[C@@H]3O (stereo partly drawn) [Compound 339]
[1]; 25 μM compound, antigen-induced hexosaminidase release, 25 µM
  Percentage Inhibition (mean) RBL-2H3 Cells: 76%
[1]; [3]
  inhibition at 25 µM: 79%
Guinea pig ileum
  inhibition at 30 µM: 40.6%
Sensitized guinea pigs; 1 min after challenge
  Lung Compliance: 0.172 ± 0.027 ml/cm H2O
  Lung Resistance: 0.326 ± 0.041 cm H2O/ml/sec
Sensitized guinea pigs; 2 min after challenge
  Lung Compliance: 0.088 ± 0.018 ml/cm H2O
  Lung Resistance: 0.522 ± 0.187 cm H2O/ml/sec
Sensitized guinea pigs; 3 min after challenge
  Lung Compliance: 0.060 ± 0.017 ml/cm H2O
  Lung Resistance: 1.102 ± 0.047 cm H2O/ml/sec
Sensitized guinea pigs; 4 min after challenge
  Lung Compliance: 0.050 ± 0.013 ml/cm H2O
  Lung Resistance: 0.996 ± 0.380 cm H2O/ml/sec
Sensitized guinea pigs; 5 min after challenge
  Lung Compliance: 0.051 ± 0.011 ml/cm H2O
  Lung Resistance: 1.014 ± 0.413 cm H2O/ml/sec
Sensitized guinea pigs; 10 min after challenge
  Lung Compliance: 0.084 ± 0.012 ml/cm H2O
  Lung Resistance: 0.440 ± 0.099 cm H2O/ml/sec
Sensitized guinea pigs; 20 min after challenge
  Lung Compliance: 0.123 ± 0.015 ml/cm H2O
  Lung Resistance: 0.296 ± 0.031 cm H2O/ml/sec
Sensitized guinea pigs; 30 min after challenge
  Lung Compliance: 0.150 ± 0.012 ml/cm H2O
  Lung Resistance: 0.291 ± 0.037 cm H2O/ml/sec
Sensitized guinea pigs; Baseline
  Lung Compliance: 0.463 ± 0.026 ml/cm H2O
  Lung Resistance: 0.249 ± 0.017 cm H2O/ml/sec
Sensitized guinea pigs; OA/10 s
  Lung Compliance: 0.442 ± 0.025 ml/cm H2O
  Lung Resistance: 0.239 ± 0.013 cm H2O/ml/sec
NF-κB
  inhibition at 1 µM: 65%
Mouse mast cells (MC/9); 25 μM compound, 25 µM
  Percentage Inhibition (mean) MC/9 cells: 55%
Mouse mast cells (MC/9)
  inhibition at 25 µM: 67%
